{"source": "paper PMC3161826", "about": "(Journal of nuclear medicine : official publication, Society …, 2010)", "key": {"[1]": {"test_system": "18-kDa translocator protein (TSPO)", "type": "binding, human", "conditions": "platelets, healthy volunteers"}, "[2]": {"target": "T1, 18-kDa translocator protein (TSPO) (Homo sapiens, UniProt P30536)", "type": "binding", "conditions": "read-out: Ki, HABs; platelets, healthy volunteers P1–P13; single class of high-affinity sites, 9 of 13"}, "[3]": {"target": "18-kDa translocator protein (TSPO)", "conditions": "brain tissue donors B1–B15; ref Owen et al. ([6]); cited from earlier work"}, "[4]": {"test_system": "18-kDa translocator protein (TSPO)", "assay": "Competition binding assay with 3H-PK11195 in human brain tissue membranes", "conditions": "for Ki ratio of LAB to HAB / Ki: brain tissue donors B1–B15; for Ki: read-out: Ki, MABs (single-site model), mixed-affinity binders, mean ± SEM"}, "[5]": {"target": "T1, 18-kDa translocator protein (TSPO)", "assay": "Competition binding assay with 3H-PK11195 in human brain tissue membranes"}, "[6]": {"target": "T1, 18-kDa translocator protein (TSPO)", "type": "binding", "conditions": "for Ki: unlabeled PBR28 50 nM in each well"}, "[7]": {"conditions": "read-out: Ki, HABs, high-affinity binders, brain tissue donors B1–B15, mean ± SEM"}, "[8]": {"conditions": "read-out: Ki, LABs, low-affinity binders, brain tissue donors B1–B15, mean ± SEM"}}, "note": "Where “and” joins values, the source holds several entries; their conditions need not be identical. Identical values can stand only once. Like-named read-outs stand apart in the source and are kept apart here."}
{"smiles": "COc1ccccc1CN(C(C)=O)c1cnccc1Oc1ccccc1", "note": "[PBR28, N-{[2-(methyloxy)phenyl]methyl}-N-[4-(phenyloxy)-3-pyridinyl]acetamide]", "values": [{"measurement": "Mean fraction of high-affinity sites in MABs", "setting": "[1]", "value": "63% ± 9.8"}, {"measurement": "Ki", "setting": "[2]", "value": "3.1 ± 0.57", "unit": "nM"}, {"measurement": "Ki ratio of LAB to HAB", "setting": "[3]", "value": 55}, {"measurement": "Mean fraction of high-affinity sites in MABs", "setting": "[4]; brain tissue, donors with no history of neurologic disease", "value": "58% ± 6.6"}, {"measurement": "Fraction of high-affinity sites in MABs, range of values", "setting": "[4]; brain tissue, range across MAB subjects", "value": "38% to 83"}, {"measurement": "Ki", "setting": "[5]; Ki, LABs, brain tissue, donors with no history of neurologic disease (B14–B33), single class of low-affinity receptors, 4 of 20", "value": "237 ± 35", "unit": "nM"}, {"measurement": "Ki", "setting": "[5]; read-out: Ki, HABs, brain tissue, donors with no history of neurologic disease (B14–B33), single class of high-affinity receptors, 9 of 20", "value": "2.9 ± 0.26", "unit": "nM"}, {"measurement": "Reduction (%) in specific signal after block with PBR28 (50 nM), HABs", "setting": "[6]; PBR28 50 nM, 3H-PK11195 specific signal, HABs, 60 min, 0.05 µM", "value": "70% and 69.0 ± 4.6 (n = 4) %"}, {"measurement": "Reduction (%) in specific signal after block with PBR28 (50 nM), LABs", "setting": "[6]; PBR28 50 nM, 3H-PK11195 specific signal, LABs", "value": "21% and 21.2 ± 4.8 (n = 4) %"}, {"measurement": "Occupancy of binding sites in HABs", "setting": "[6]; PBR28 at 50 nM, expected occupancy", "value": "approximately 94%"}, {"measurement": "receptor occupancy at 0.05 µM", "setting": "[6]; read-out: Occupancy of binding sites in LABs", "value": "~21", "unit": "%"}]}
{"smiles": "CCN(CC)C(=O)Cc1c(-c2ccc(OCCCF)cc2)nc2ccc(Cl)cn12", "note": "[PBR111]", "values": [{"measurement": "Difference in affinity between HABs and LABs", "setting": "[4]; brain tissue", "value": "~ 4 fold and < 5 fold"}, {"measurement": "Ki ratio of LAB to HAB", "setting": "[4]", "value": 4.0}, {"measurement": "Ki", "setting": "[4]", "value": "30.3 ± 4.1", "unit": "nM"}, {"measurement": "Ki", "setting": "[5]; [7]", "value": "15.6 ± 3.7", "unit": "nM"}, {"measurement": "Ki", "setting": "[5]; [8]", "value": "61.8 ± 10.7", "unit": "nM"}, {"measurement": "Ki", "setting": "[6]; read-out: Ki after block with PBR28 (50 nM), LABs, low-affinity binders", "value": "51.7 ± 12.2", "unit": "nM"}, {"measurement": "Ki", "setting": "[6]; read-out: Ki after block with PBR28 (50 nM), MABs, mixed-affinity binders", "value": "54.4 ± 5.3", "unit": "nM"}]}
{"smiles": "COc1ccc(OC)c(CN(C(C)=O)c2cc(F)ccc2Oc2ccccc2)c1", "note": "[DAA1106]", "values": [{"measurement": "Difference in affinity between HABs and LABs", "setting": "[4]; brain tissue", "value": "~ 4 fold and ~ 5 fold and < 5 fold"}, {"measurement": "Ki ratio of LAB to HAB", "setting": "[4]", "value": 4.7}, {"measurement": "Ki", "setting": "[4]", "value": "4.8 ± 0.4", "unit": "nM"}, {"measurement": "Ki", "setting": "[5]; [7]", "value": "2.8 ± 0.3", "unit": "nM"}, {"measurement": "Ki", "setting": "[5]; [8]", "value": "13.1 ± 1.3", "unit": "nM"}]}
{"smiles": "CCN(CC)C(=O)Cc1c(-c2ccc(OC)cc2)nn2c(C)cc(C)nc12", "note": "[DPA713]", "values": [{"measurement": "Difference in affinity between HABs and LABs", "setting": "[4]; brain tissue", "value": "~ 4 fold and < 5 fold"}]}
{"smiles": "COc1ccc(OC)c(CN(C(=O)CF)c2ccccc2Oc2ccccc2)c1", "note": "[PBR06]", "values": [{"measurement": "Ki ratio of LAB to HAB", "setting": "[4]", "value": 17}, {"measurement": "Ki", "setting": "[5]; [7]", "value": "8.6 ± 2", "unit": "nM"}, {"measurement": "Ki", "setting": "[5]; [8]", "value": "149 ± 46.6", "unit": "nM"}]}
